This note sets out measurements from patent US11584747B2, “Substituted pyridopyrimidinonyl compounds useful as T cell activators” (BRISTOL-MYERS SQUIBB COMPANY, priority 2019, dated 2023).

Where two headings read alike, the source gives them in different places.

One assay deals with human DGKα (Homo sapiens (Human), UniProt P23743). Briefly: DGKα LIPGLO assay (extruded liposome substrate, ADP-Glo luminescence). In kind it is biochemical.
The target in the next assay is human DGKζ (Homo sapiens (Human), UniProt Q13574). Put plainly: DGKζ LIPGLO assay (extruded liposome substrate, ADP-Glo luminescence). In kind it is biochemical.
Chain of human DGKζ (Q13574 other isoform, or with tags, fused parts or gaps): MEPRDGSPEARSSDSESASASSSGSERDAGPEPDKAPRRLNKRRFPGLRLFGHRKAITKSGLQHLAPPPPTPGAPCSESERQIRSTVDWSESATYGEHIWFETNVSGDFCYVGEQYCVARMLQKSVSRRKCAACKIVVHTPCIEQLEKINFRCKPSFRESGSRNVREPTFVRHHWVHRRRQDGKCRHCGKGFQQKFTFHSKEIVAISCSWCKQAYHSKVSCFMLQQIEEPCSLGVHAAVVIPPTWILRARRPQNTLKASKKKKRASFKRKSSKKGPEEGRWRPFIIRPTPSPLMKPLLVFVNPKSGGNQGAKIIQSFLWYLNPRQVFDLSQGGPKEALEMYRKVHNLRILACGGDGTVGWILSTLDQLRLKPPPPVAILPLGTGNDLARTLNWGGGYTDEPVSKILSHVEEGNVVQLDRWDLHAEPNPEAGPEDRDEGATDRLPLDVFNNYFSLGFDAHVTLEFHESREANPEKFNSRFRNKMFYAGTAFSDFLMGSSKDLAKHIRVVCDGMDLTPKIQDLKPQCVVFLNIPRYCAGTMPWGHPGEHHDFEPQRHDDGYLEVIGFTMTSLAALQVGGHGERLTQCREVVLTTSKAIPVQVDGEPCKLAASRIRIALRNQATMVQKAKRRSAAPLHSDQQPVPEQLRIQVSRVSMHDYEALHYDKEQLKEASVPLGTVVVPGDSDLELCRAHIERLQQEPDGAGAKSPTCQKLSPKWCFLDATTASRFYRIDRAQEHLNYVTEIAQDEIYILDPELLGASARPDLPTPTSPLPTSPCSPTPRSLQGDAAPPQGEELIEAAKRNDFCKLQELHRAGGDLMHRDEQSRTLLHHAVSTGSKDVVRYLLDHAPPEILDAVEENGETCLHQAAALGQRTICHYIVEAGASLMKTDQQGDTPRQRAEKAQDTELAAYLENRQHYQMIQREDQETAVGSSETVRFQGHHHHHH
Assay [1] deals with human venous whole blood (IFN-γ). Briefly: Human whole blood IFN-γ assay. Format: cell-based. The protocol: Human venous whole blood (22.5 μL per well), obtained from healthy donors, was pre-treated with compounds for one hour at 37° C. in a humidified 95% air/5% CO2 incubator. The blood was stimulated with 2.5 μL anti-human CD3 and anti-CD28 mAb at a final concentration of 1 μg/mL each for 24 hours at 37° C. IFN-γ in the supernatants was measured using AlphLISA kit (Cat #AL217).

The mark [2] stands for this setting: liposome assay, read-out: DGK alpha LIPGLO IC50.
Setting [3] is: liposome assay, read-out: DGK zeta LIPGLO IC50.
The mark [4] stands for this setting: whole blood, normalized to 3 μM reference compound as 100% activation, read-out: IFN-γ Whole Blood Normalized EC50.
Setting [5] is: Homo sapiens, whole blood, normalized to 3 μM reference compound as 100% activation, read-out: IFN-γ Whole Blood Normalized EC50.
[6] abbreviates: liposome (LIPGLO) assay, read-out: DGK alpha (liposome assay) IC50.
Where [7] appears, read: liposome (LIPGLO) assay, read-out: DGK zeta (liposome assay) IC50.
Setting [8] is: human whole blood, anti-CD3 plus anti-CD28 stimulation, 24 hours, read-out: IFN-γ Whole Blood EC50.

Chain of human DGKα (P23743 whole entry, looked up): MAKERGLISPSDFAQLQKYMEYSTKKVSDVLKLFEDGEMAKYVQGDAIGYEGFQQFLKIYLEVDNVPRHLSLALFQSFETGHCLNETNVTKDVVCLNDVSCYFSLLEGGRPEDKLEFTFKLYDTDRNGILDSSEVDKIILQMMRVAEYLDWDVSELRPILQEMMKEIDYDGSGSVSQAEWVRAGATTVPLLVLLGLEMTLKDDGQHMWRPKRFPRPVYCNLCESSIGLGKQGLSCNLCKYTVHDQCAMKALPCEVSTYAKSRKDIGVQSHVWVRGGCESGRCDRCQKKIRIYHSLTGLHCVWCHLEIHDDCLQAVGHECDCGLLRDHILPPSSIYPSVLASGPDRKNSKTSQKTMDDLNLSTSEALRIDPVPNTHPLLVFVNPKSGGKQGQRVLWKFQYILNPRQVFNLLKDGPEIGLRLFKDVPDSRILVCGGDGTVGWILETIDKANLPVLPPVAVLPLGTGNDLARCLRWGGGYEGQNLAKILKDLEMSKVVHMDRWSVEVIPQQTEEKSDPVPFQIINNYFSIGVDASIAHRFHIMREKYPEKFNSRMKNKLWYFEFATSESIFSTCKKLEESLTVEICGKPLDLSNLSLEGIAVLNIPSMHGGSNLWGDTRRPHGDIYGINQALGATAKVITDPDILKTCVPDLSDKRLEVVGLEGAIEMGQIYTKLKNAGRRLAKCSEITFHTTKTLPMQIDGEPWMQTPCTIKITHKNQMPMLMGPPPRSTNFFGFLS

`CC(c1ccc(OC(F)(F)F)cc1)N1C[C@H](C)N(c2nc(=O)n(C)c3ccc(C#N)nc23)C[C@H]1C` (single isomer, unassigned) [Example 132]: the IC50 on human DGKα (setting [2]) stood at 700 nM; at human DGKζ (setting [3]), 5950 nM. Further, in assay [1] (setting [4]), the EC50 amounted to 2650 nM.
Turning to `COC[C@@H]1CN(c2nc(=O)n(C)c3ccc(C#N)nc23)[C@@H](C)CN1C(c1ccc(F)cc1)c1ccc(C(F)(F)F)cn1` (single isomer, unassigned) [Example 178], the IC50 at human DGKα (setting [2]) came to 290 nM; on human DGKζ (setting [3]), 130 nM. Besides, the EC50 in assay [1] (setting [5]) worked out at 91 nM.
On to `CC[C@@H]1CN(c2nc(=O)n(C)c3ccc(C#N)nc23)[C@@H](C)CN1C(C)c1ccc(C(F)(F)F)cc1F` (single isomer, unassigned) [Example 59], for which the IC50 is 300 nM on human DGKα (setting [2]) and 260 nM on human DGKζ (setting [3]). Besides, the EC50 in assay [1] (setting [4]) came to 500 nM.
For `CC[C@@H]1CN(c2nc(=O)n(C)c3ccc(C#N)nc23)[C@@H](C)CN1C(c1ccc(F)cc1)c1ccon1` (single isomer, unassigned) [Example 74], in that order: 250 nM, 960 nM and 430 nM.
`C[C@H]1CN(C(c2ccc(F)cc2)c2ccc(C(F)(F)F)cn2)[C@H](CO)CN1c1nc(=O)n(C)c2ccc(C#N)nc12` (single isomer, unassigned) [Example 181]: the IC50 came out at 4920 nM on human DGKα (setting [2]) and 12400 nM on human DGKζ (setting [3]). The EC50 in assay [1] (setting [4]) is 730 nM.
For `CC[C@@H]1CN(c2nc(=O)n(C)c3ccc(C#N)nc23)[C@@H](C)CN1C(C)c1ccc(OC)cc1` (single isomer, unassigned) [Example 57], in that order: 960 nM, 930 nM and 1900 nM.
The like results for `CC[C@@H]1CN(c2nc(=O)n(C)c3ccc(C#N)nc23)[C@@H](C)CN1C(C)c1ccc(OC(C)C)cc1` (single isomer, unassigned) [Example 52] were, in that order, 230 nM, 52 nM and 53 nM.
For `CC[C@H]1CN(C(C)c2ccc(C3CC3)cc2)[C@H](CC)CN1c1nc(=O)n(C)c2ccc(C#N)nc12` (single isomer, unassigned) [Example 28], in that order: 1570 nM, 2650 nM and 2040 nM.
Regarding `CC(c1ccc(OC(F)(F)F)cc1)N1C[C@H](C)N(c2nc(=O)n(C)c3ccc(C#N)nc23)C[C@H]1CO` (single isomer, unassigned) [Example 184], the figures for the IC50 at human DGKα (setting [2]) and at human DGKζ (setting [3]) were 2660 nM and 45000 nM, respectively. Further, the EC50 in assay [1] (setting [4]) worked out at 20000 nM.
The like results for `CC[C@@H]1CN(c2nc(=O)n(C)c3ccc(C#N)nc23)[C@@H](C)CN1C(C)c1ccc(OC(C)C)cc1` (single isomer, unassigned) [Example 53] were, in that order, 630 nM, 79 nM and 200 nM.
For `CC[C@H]1CN(C(C)c2ccc(C3CC3)cc2F)[C@H](CC)CN1c1nc(=O)n(C)c2ccc(C#N)nc12` (single isomer, unassigned) [Example 41], in that order: 2270 nM, 1080 nM and 470 nM.
For `CC[C@@H]1CN(c2nc(=O)n(C)c3ccc(C#N)nc23)[C@@H](C)CN1C(C)c1ccc2c(c1)OC(F)(F)O2` (single isomer, unassigned) [Example 71], in that order: 670 nM, 22 nM and 66 nM.
As to `CC[C@@H]1CN(c2nc(=O)n(C)c3ccc(C#N)nc23)[C@@H](CC)CN1Cc1ccc(OC(F)(F)F)cc1F` [Example 27, 4-((2S,5R)-2,5-diethyl-4-(2-fluoro-4-(trifluoromethoxy)benzyl)piperazin-1-yl)-1-methyl-2-oxo-1,2-dihydropyrido[3,2-d]pyrimidine-6-carbonitrile], the figures for the IC50 at human DGKα (setting [2]) and at human DGKζ (setting [3]) were 2 nM and 230 nM, respectively. Besides, the EC50 in assay [1] (setting [5]) stood at 620 nM.
For `CCC(c1ccc(OC(F)(F)F)cc1)N1C[C@H](C)N(c2nc(=O)n(C)c3ccc(C#N)nc23)C[C@H]1C` (single isomer, unassigned) [Example 154], in that order: 16 nM, 370 nM and 1430 nM.
On to `CC[C@H]1CN(C(C)c2ccc(C(F)(F)F)cc2)[C@H](C)CN1c1nc(=O)n(C)c2ccc(C#N)nc12` (stereo partly drawn) [Example 116, 4-((2S,5R)-2-ethyl-5-methyl-4-(1-(4-(trifluoromethyl)phenyl)ethyl)piperazin-1-yl)-1-methyl-2-oxo-1,2-dihydropyrido[3,2-d]pyrimidine-6-carbonitrile], for which the results for the IC50 on human DGKα (setting [2]) and on human DGKζ (setting [3]) were 1000 nM and 2110 nM, respectively. In assay [1] (setting [4]), the concentration giving a half-maximal response (EC50) was determined as 1430 nM.
The like results for `CC[C@H]1CN(C(C)c2ccc(OCC3CC3)cc2F)[C@H](CC)CN1c1nc(=O)n(C)c2ccc(C#N)nc12` (single isomer, unassigned) [Example 32] were, in that order, 500 nM, 31 nM and 19 nM.
For the compound `CC(c1ccc(OC(C)(C)C#N)cc1)N1C[C@H](C)N(c2nc(=O)n(C)c3ccc(C#N)nc23)C[C@H]1C` (stereo partly drawn) [Example 377, 4-((2S,5R)-4-(1-(4-((2-cyanopropan-2-yl)oxy)phenyl)ethyl)-2,5-dimethylpiperazin-1-yl)-1-methyl-2-oxo-1,2-dihydropyrido[3,2-d]pyrimidine-6-carbonitrile], the IC50 on human DGKα (setting [6]) was found to be 240 nM; at human DGKζ (setting [7]), 370 nM. For the same compound, the EC50 in assay [1] (setting [8]) was 520 nM.
Regarding `CC[C@@H]1CN(c2nc(=O)n(C)c3ccc(C#N)nc23)[C@@H](C)CN1C(C)c1ccc(C2CC2)cc1` (single isomer, unassigned) [Example 64], the figures for the IC50 on human DGKα (setting [2]) and on human DGKζ (setting [3]) were 340 nM and 760 nM, respectively. The EC50 in assay [1] (setting [4]) stood at 690 nM.
For `C[C@@H]1CN(c2nc(=O)n(C)c3ccc(C#N)nc23)[C@@H](C)CN1C(c1ccc(F)cc1)c1nc(C2CC2)cs1` (single isomer, unassigned) [Example 159], in that order: 94 nM, 38 nM and 250 nM.
For `CC[C@@H]1CN(c2nc(=O)n(C)c3ccc(C#N)nc23)[C@@H](C)CN1C(C)c1ccc(OC(F)(F)F)cc1` (single isomer, unassigned) [Example 49], in that order: 390 nM, 850 nM and 2340 nM.
For the compound `CC(C)c1ccc(CN2C[C@H](C)N(c3nc(=O)n(C)c4ccc(C#N)nc34)C[C@H]2C)cc1` [Example 137, 4-((2S,5R)-4-(4-isopropylbenzyl)-2,5-dimethylpiperazin-1-yl)-1-methyl-2-oxo-1,2-dihydropyrido[3,2-d]pyrimidine-6-carbonitrile], the IC50 came out at 83 nM at human DGKα (setting [2]) and 190 nM at human DGKζ (setting [3]). The EC50 in assay [1] (setting [5]) was found to be 2650 nM.
For `CC[C@H]1CN(C(c2ccc(F)cc2)c2ccon2)[C@H](CC)CN1c1nc(=O)n(C)c2ccc(C#N)nc12` (single isomer, unassigned) [Example 34], the IC50 on human DGKα (setting [2]) is 620 nM; on human DGKζ (setting [3]), 310 nM. The EC50 in assay [1] (setting [4]) was found to be 420 nM.
The like results for `CC[C@@H]1CN(c2nc(=O)n(C)c3ccc(C#N)nc23)[C@@H](C)CN1C(C)c1ccc(OCC2CC2)cc1F` (single isomer, unassigned) [Example 69] were, in that order, 210 nM, 14 nM and 33 nM.
The like results for `CC[C@H]1CN(C(C)c2ccc(OCC3CC3)cc2F)[C@H](CC)CN1c1nc(=O)n(C)c2ccc(C#N)nc12` (single isomer, unassigned) [Example 33] were, in that order, 2560 nM, 5930 nM and 3830 nM.
Consider `CC[C@@H]1CN(c2nc(=O)n(C)c3ccc(C#N)nc23)[C@@H](C)CN1C(C)c1ccc(OCC2CC2)cc1` (single isomer, unassigned) [Example 68], for which the IC50 on human DGKα (setting [2]) worked out at 1630 nM; at human DGKζ (setting [3]), 480 nM. In addition, the EC50 in assay [1] (setting [5]) is 1900 nM.
For the compound `CC[C@H]1CN(C(C)c2ccc(OC(F)(F)F)c(F)c2)[C@H](CC)CN1c1nc(=O)n(C)c2ccc(C#N)nc12` (single isomer, unassigned) [Example 31], the IC50 stood at 1700 nM on human DGKα (setting [2]) and 960 nM on human DGKζ (setting [3]). The EC50 in assay [1] (setting [4]) is 270 nM.
Consider `CC(c1ccc2c(c1)OC(F)(F)O2)N1C[C@H](C)N(c2nc(=O)n(C)c3ccc(C#N)nc23)C[C@H]1C` (single isomer, unassigned) [Example 166], for which the IC50 at human DGKα (setting [2]) is 5390 nM; at human DGKζ (setting [3]), 330 nM. For the same compound, in assay [1] (setting [4]), the EC50 worked out at 500 nM.
For `C[C@@H]1CN(c2nc(=O)n(C)c3ccc(C#N)nc23)[C@@H](C)CN1C(c1ccc(F)cc1)c1ccon1` (single isomer, unassigned) [Example 162], in that order: 56 nM, 1150 nM and 1850 nM.
With `Cc1ccc(C(c2ccc(C)cc2)N2C[C@H](C)N(c3nc(=O)n(C)c4ccc(C#N)nc34)C[C@H]2C)cc1` [Example 125], the IC50 is 740 nM at human DGKα (setting [2]) and 990 nM on human DGKζ (setting [3]). Moreover, in assay [1] (setting [5]), the EC50 was determined as 500 nM.
In the case of `CC(c1ccc(OC(C)(C)C#N)cc1)N1C[C@H](C)N(c2nc(=O)n(C)c3ccc(C#N)nc23)C[C@H]1C` (stereo partly drawn) [Example 376, 4-((2S,5R)-4-(1-(4-((2-cyanopropan-2-yl)oxy)phenyl)ethyl)-2,5-dimethylpiperazin-1-yl)-1-methyl-2-oxo-1,2-dihydropyrido[3,2-d]pyrimidine-6-carbonitrile], the values for the IC50 on human DGKα (setting [6]) and at human DGKζ (setting [7]) were 30 nM and 97 nM, respectively. For the same compound, the EC50 in assay [1] (setting [8]) amounted to 58 nM.
